# Measurements: patent US12059416B2, “Combinations of a H3 antagonist and a noradrenaline reuptake inhibitor, and the therapeutical uses thereof” (BIOPROJET, priority 2018, dated 2024)
# Where a name gives a salt, the structure may show the parent alone.
# Tests used:
# male Wistar rats = assay: Effect on sleep/wake (EEG telemetry) in rats; type: in vivo, rat; settings: oral gavage, over 12 hours
# Method: Effects on sleep/wake parameters were investigated in male Wistar rats. Briefly, rats were stereotaxically implanted with cortical electrodes for electroencephalogram (EEG) recording using a telemetric system (Data Sciences Int., Saint Paul, MN, USA) for the acquisition, transfer and storage of motor activity and EEG signals. EEG signals were analysed according to a procedure adapted from the algorithm proposed by R. P. Louis et al. (J. Neurosci. Methods, 2004, 133, 71-80) and the analysis of vigilance stages according to H. Kleinlogel (Neuropsychobiol. 1990-91, 23, 197-204) after a fast Fourier transformation of 8-second duration EEG epochs. This allows the determination for each epoch of its vigilance stage (i.e. active wakefulness, quiet wakefulness, light or deep slow wave sleeps and REM sleep also named paradoxical sleep). Rats received orally (gavage) vehicle, drug or drug combination around 30 minutes before the light onset. Then, EEG signals were continuously recorded and further integrated over the 12-hour diurnal phase.
# Effects on sleep/wake recorded in rats of drugs alone or combined are presented in the FIG. 1 (Pitolisant/duloxetine), FIG. 2 (BP1.3656B/duloxetine), FIG. 3 (pitolisant/reboxetine) and FIG. 4 (pitolisant/atomoxetine): […]
# [1] = system: noradrenaline release in the prefrontal cortex; assay: Noradrenaline release in the prefrontal cortex, in vivo microdialysis; settings: rat prefrontal cortex, oral gavage, maximal increase recorded over 150 min post dosing, mean ± SEM
# From the text: Effects on noradrenaline release in the prefrontal cortex were investigated in vivo by microdialysis in vigil male Wistar rats as described by AD Medhurst et al. (J. Pharmacol. Exp. Ther. 2007, 321, 1032-1045) and G. Flik et al. (J. Mol. Neurosci. 2015, 56, 320-328). Briefly, anaesthetized rats were implanted with a guide cannulae for sampling in the prefrontal cortex. After at least one week of recovery post-surgery, the microdialysis probe was inserted in the guide cannulae and perfused continuously with artificial cerebrospinal fluid (CSF). The rat was habituated to the microdialysis cage for ˜3 hours. Then, rats received orally (gavage) vehicle, drug or drug combination. CSF samples collected every 30 minutes were analysed for their noradrenaline content by HPLC coupled to a electrochemical detection. Noradrenaline sample levels were expressed in percentage of basal noradrenaline release recorded over 1.5 hour before vehicle or drug treatment.
SMILES,decrease in the REM sleep (male Wistar rats),Maximal increase (% of basal noradrenaline release) [1]
CNCC[C@H](Oc1cccc2ccccc12)c1cccs1 [duloxetine],−23%,+113 ± 31%
"Clc1ccc(CCCOCCCN2CCCCC2)cc1 [pitolisant, monohydrochloride salt of 1-{3-[3-(4-chlorophenyl)propoxy]propyl}piperidine]",does not have any significant effect,+148 ± 49%
